What all share (experiment): MIC by agar plate dilution method on standard strains (Example 3)
Holding throughout (assay type): cell-based
Details in all cases: read-out: MIC

In assay [1] the test system is Staphylococcus epidermidis ATCC29886. The method, then:
(§1) Minimum growth-inhibiting concentrations of trifluoromethionine and other antibacterial drugs on standard strains were determined by an agar plate dilution method according to the standard method of Japanese Society of Chemotherapy.
(§2) Drug solutions at a concentration 10 times as high as the maximum applicable concentration were prepared as original solutions of test drugs given in Table 2 (as to solvents used for this purpose, reference should be made also to Table 2). Serial two-fold dilution series of the original solutions were prepared at desired stages, and 1 ml each of the diluted drug solutions was added to 9 ml of media given in Table 3 to prepare drug plates. Concentration range of the individual drugs used are as follows: trifluoromethionine: 400-0.025 μg/ml (15 stages), tetracycline: 100-0.025 μg/ml (13 stages), and clarithromycin: 100-0.025 μg/ml (13 stages).
(§3) • 1) Bacterial solutions stocked at −80° C. were inoculated on agar media (as to media used, reference should be made to Table 3), and then incubated at 37° C. overnight. When desired, subculturing was conducted once more on the same agar media (by overnight incubation at 37° C.). • 2) Colonies growing on the agar media were sampled by a platinum loop, suspended in liquid media (reference should be made to Table 3) and statically incubated at 37° C. for 18 hours (preculturing). • 3) Preculturing was continued up to McFarland 0.5 (McFarland 0.5=about 10^8 CFU/ml), and then the culture broths were diluted with Muellar Hinton Broth to make 10^6 CFU/ml. 5 μl each of the diluted solutions were inoculated on the above-mentioned drug plates by an inoculator Microplanter.
(§4) Thus, bacterial solutions at about 10^8 CFU/ml can be easily prepared by use of McFarland 0.5. Bacterial solutions at such a turbidity are commercially available, but can be easily prepared. McFarland 0.5 can be obtained by adding 0.5 ml of an aqueous 0.048 mol/l barium chloride solution to 99.5 ml of 1% v/v (0.18 mol/l) sulfuric acid. • 4) The individual bacteria were incubated at 37° C. for 18-20 hours and then the growth was determined in the same manner as in Example 2 to obtain minimum growth-inhibiting concentrations.

For assay [2], the system named is Staphylococcus epidermidis ATCC12228. The method, then:
as §1, §2, §3, §4

For assay [3], the system named is Haemophilus influenzae ATCC49247. The method, then:
as §3, with “Drug solutions at a concentration 10 times as high as the maximum applicable concentration were prepared as original solutions of test drugs given in Table 2 (as to solvents used for this purpose, reference should be made also to Table 2). Serial two-fold dilution series of the original solutions were prepared at desired stages, and 1 ml each of the diluted drug solutions was added to 9 ml of media given in Table 3 to prepare drug plates. […] • 1)” for “• 1)”, “inoculator Microplanter. […] Thus, bacterial solutions at about 10^8 CFU/ml can be easily prepared by use of McFarland 0.5. Bacterial solutions at such a turbidity are commercially available, but can be easily prepared.” for “inoculator Microplanter.”

In assay [4] the test system is Streptococcus agalactiae ATCC13813. The method, then:
as §3, with “Drug solutions at a concentration 10 times as high as the maximum applicable concentration were prepared as original solutions of test drugs given in Table 2 (as to solvents used for this purpose, reference should be made also to Table 2). Serial two-fold dilution series of the original solutions were prepared at desired stages, and 1 ml each of the diluted drug solutions was added to 9 ml of media given in Table 3 to prepare drug plates. […] • 1)” for “• 1)”, “inoculator Microplanter. […] Thus, bacterial solutions at about 10^8 CFU/ml can be easily prepared by use of McFarland 0.5. Bacterial solutions at such a turbidity are commercially available, but can be easily prepared.” for “inoculator Microplanter.”

The subject of assay [5] is Streptococcus pneumoniae ATCC6302. The protocol: as §3, with “Drug solutions at a concentration 10 times as high as the maximum applicable concentration were prepared as original solutions of test drugs given in Table 2 (as to solvents used for this purpose, reference should be made also to Table 2). Serial two-fold dilution series of the original solutions were prepared at desired stages, and 1 ml each of the diluted drug solutions was added to 9 ml of media given in Table 3 to prepare drug plates. […] • 1)” for “• 1)”, “inoculator Microplanter. […] Thus, bacterial solutions at about 10^8 CFU/ml can be easily prepared by use of McFarland 0.5. Bacterial solutions at such a turbidity are commercially available, but can be easily prepared.” for “inoculator Microplanter.”

In assay [6] the test system is Serratia marcescens ATCC13880. The method, then:
as §3, with “Drug solutions at a concentration 10 times as high as the maximum applicable concentration were prepared as original solutions of test drugs given in Table 2 (as to solvents used for this purpose, reference should be made also to Table 2). Serial two-fold dilution series of the original solutions were prepared at desired stages, and 1 ml each of the diluted drug solutions was added to 9 ml of media given in Table 3 to prepare drug plates. […] • 1)” for “• 1)”, “inoculator Microplanter. […] Thus, bacterial solutions at about 10^8 CFU/ml can be easily prepared by use of McFarland 0.5. Bacterial solutions at such a turbidity are commercially available, but can be easily prepared.” for “inoculator Microplanter.”

Assay [7] relates to Staphylococcus aureus ATCC29247. The protocol:
as §3, with “Drug solutions at a concentration 10 times as high as the maximum applicable concentration were prepared as original solutions of test drugs given in Table 2 (as to solvents used for this purpose, reference should be made also to Table 2). Serial two-fold dilution series of the original solutions were prepared at desired stages, and 1 ml each of the diluted drug solutions was added to 9 ml of media given in Table 3 to prepare drug plates. […] • 1)” for “• 1)”, “inoculator Microplanter. […] Thus, bacterial solutions at about 10^8 CFU/ml can be easily prepared by use of McFarland 0.5. Bacterial solutions at such a turbidity are commercially available, but can be easily prepared.” for “inoculator Microplanter.”

Assay [8] has as its system Streptococcus pyogenes ATCC12353. The protocol: as §3, with “Drug solutions at a concentration 10 times as high as the maximum applicable concentration were prepared as original solutions of test drugs given in Table 2 (as to solvents used for this purpose, reference should be made also to Table 2). Serial two-fold dilution series of the original solutions were prepared at desired stages, and 1 ml each of the diluted drug solutions was added to 9 ml of media given in Table 3 to prepare drug plates. […] • 1)” for “• 1)”, “inoculator Microplanter. […] Thus, bacterial solutions at about 10^8 CFU/ml can be easily prepared by use of McFarland 0.5. Bacterial solutions at such a turbidity are commercially available, but can be easily prepared.” for “inoculator Microplanter.”

Assay [9] has as its system Haemophilus influenzae ATCC33391. The method, then:
as §3, with “Drug solutions at a concentration 10 times as high as the maximum applicable concentration were prepared as original solutions of test drugs given in Table 2 (as to solvents used for this purpose, reference should be made also to Table 2). Serial two-fold dilution series of the original solutions were prepared at desired stages, and 1 ml each of the diluted drug solutions was added to 9 ml of media given in Table 3 to prepare drug plates. […] • 1)” for “• 1)”, “inoculator Microplanter. […] Thus, bacterial solutions at about 10^8 CFU/ml can be easily prepared by use of McFarland 0.5. Bacterial solutions at such a turbidity are commercially available, but can be easily prepared.” for “inoculator Microplanter.”

Assay [10] has as its system Streptococcus pneumoniae ATCC6301. The protocol: as §3, with “Drug solutions at a concentration 10 times as high as the maximum applicable concentration were prepared as original solutions of test drugs given in Table 2 (as to solvents used for this purpose, reference should be made also to Table 2). Serial two-fold dilution series of the original solutions were prepared at desired stages, and 1 ml each of the diluted drug solutions was added to 9 ml of media given in Table 3 to prepare drug plates. […] • 1)” for “• 1)”, “inoculator Microplanter. […] Thus, bacterial solutions at about 10^8 CFU/ml can be easily prepared by use of McFarland 0.5. Bacterial solutions at such a turbidity are commercially available, but can be easily prepared.” for “inoculator Microplanter.”

In assay [11] the test system is Pseudomonas aeruginosa ATCC27853. The protocol: as §3, with “Drug solutions at a concentration 10 times as high as the maximum applicable concentration were prepared as original solutions of test drugs given in Table 2 (as to solvents used for this purpose, reference should be made also to Table 2). Serial two-fold dilution series of the original solutions were prepared at desired stages, and 1 ml each of the diluted drug solutions was added to 9 ml of media given in Table 3 to prepare drug plates. […] • 1)” for “• 1)”, “inoculator Microplanter. […] Thus, bacterial solutions at about 10^8 CFU/ml can be easily prepared by use of McFarland 0.5. Bacterial solutions at such a turbidity are commercially available, but can be easily prepared.” for “inoculator Microplanter.”

In assay [12] the test system is Haemophilus influenzae ATCC49766. The protocol:
as §3, with “Drug solutions at a concentration 10 times as high as the maximum applicable concentration were prepared as original solutions of test drugs given in Table 2 (as to solvents used for this purpose, reference should be made also to Table 2). Serial two-fold dilution series of the original solutions were prepared at desired stages, and 1 ml each of the diluted drug solutions was added to 9 ml of media given in Table 3 to prepare drug plates. […] • 1)” for “• 1)”, “inoculator Microplanter. […] Thus, bacterial solutions at about 10^8 CFU/ml can be easily prepared by use of McFarland 0.5. Bacterial solutions at such a turbidity are commercially available, but can be easily prepared.” for “inoculator Microplanter.”

Assay [13] has as its system Escherichia coli ATCC25922. The method, then: as §3, with “Drug solutions at a concentration 10 times as high as the maximum applicable concentration were prepared as original solutions of test drugs given in Table 2 (as to solvents used for this purpose, reference should be made also to Table 2). Serial two-fold dilution series of the original solutions were prepared at desired stages, and 1 ml each of the diluted drug solutions was added to 9 ml of media given in Table 3 to prepare drug plates. […] • 1)” for “• 1)”, “inoculator Microplanter. […] Thus, bacterial solutions at about 10^8 CFU/ml can be easily prepared by use of McFarland 0.5. Bacterial solutions at such a turbidity are commercially available, but can be easily prepared.” for “inoculator Microplanter.”

Assay [14] has as its system Micrococcus luteus ATCC9341. The protocol: as §3, with “Drug solutions at a concentration 10 times as high as the maximum applicable concentration were prepared as original solutions of test drugs given in Table 2 (as to solvents used for this purpose, reference should be made also to Table 2). Serial two-fold dilution series of the original solutions were prepared at desired stages, and 1 ml each of the diluted drug solutions was added to 9 ml of media given in Table 3 to prepare drug plates. […] • 1)” for “• 1)”, “inoculator Microplanter. […] Thus, bacterial solutions at about 10^8 CFU/ml can be easily prepared by use of McFarland 0.5. Bacterial solutions at such a turbidity are commercially available, but can be easily prepared.” for “inoculator Microplanter.”

Converted amounts (≈) assume the structure as drawn.

In the case of `CN(C)[C@@H]1C(O)=C(C(N)=O)C(=O)[C@@]2(O)C(O)=C3C(=O)c4c(O)cccc4[C@@](C)(O)[C@H]3C[C@@H]12` [TC, Tetracycline], the MIC in assay [1] worked out at 0.39 mg/L (≈ 0.878 µM); in [2], 50 mg/L (≈ 113 µM); in assay [3], 25 mg/L (≈ 56.3 µM); in assay [4] it was 0.2 mg/L (≈ 0.45 µM); in assay [5] it was 0.2 mg/L (≈ 0.45 µM); in assay [6], 100 mg/L (≈ 225 µM). The MIC turned out to be 0.78 mg/L (≈ 1.76 µM) in assay [7]; 0.2 mg/L (≈ 0.45 µM) in assay [8]; 0.78 mg/L (≈ 1.76 µM) in assay [9]; 0.1 mg/L (≈ 0.225 µM) in assay [10]; 12.5 mg/L (≈ 28.1 µM) in [11]; 0.78 mg/L (≈ 1.76 µM) in [12]. Besides, the MIC in assay [13] worked out at 1.56 mg/L (≈ 3.51 µM); in [14], 0.78 mg/L (≈ 1.76 µM).

The values above are taken from patent US20050175550A1, “Compositions for oral use” (priority 2000, published 2005).
